Earlier results in US20230310544A1, “ANTI-RNA VIRAL PHARMACEUTICAL COMBINATION THERAPY WITH APROTININ + anti-RNA DRUG” (ASAVI LLC, priority 2022, published 2023).

Experiments:
SARS-CoV-2 = settings: human, in vivo
COVID-19 = COVID-19 patients

Question: What does the source list for `NC(=O)c1nc(F)c[nH]c1=O` [FVP, favipiravir]?
Answer: Median time to elimination of SARS-CoV-2 confirmed by RT-PCR, days (IQR) (SARS-CoV-2): 4.5 days; Median time to improvement in clinical status by 2 points on the WHO-OSCI, days (IQR) (SARS-CoV-2): 14.0 days; Median time to normalization of body temperature (<37° C.), days (IQR) (SARS-CoV-2): 2.0 days; time to clinical improvement (COVID-19): ≤ 14 days; time to viral clearance (COVID-19): ≤ 7 days
